From patent US11760754B2, “Heterocyclic mitochondrial activity inhibitors and uses thereof” (UNIVERSITÉ DE MONTRÉAL, priority 2017, dated 2023)
pEC50: −log10 of the molar value. Read-outs that look alike come from different tables or passages of the source.

How the values were obtained:
OCI-AML3 cells = assay: OCI-AML3 cell growth inhibition, dose-response viability assay (CellTiterGlo); type: cell-based; conditions: Homo sapiens, OCI-AML-3, 144 h, read-out: AML-3 EC50
Experimental: Cell dose-response viability assays. […] In the initial screen, compounds were added to seeded cells in serial dilutions (10 dilutions, 1:3, starting from […] 20 μM), in duplicates.
(§1) The potency of the compounds of Example 6 at inhibiting OCI-AML3 cell growth was tested using a procedure similar to that described for Mutritinib in Example 1. […] Murine MLL-AF9 leukemia cells (female cells) were generated by infection with VSV-G-pseudotyped MSCV MLL-AF9 IRES Puro (subcloned from a construct by Frédéric Barabé, Laval U, Quebec, QC, Canada).
(§2) Compounds were added to seeded cells in serial dilutions from 10 μM to 0.5 nM, in duplicates or quadruplicates.

MLL-AF9 cells = assay: MLL-AF9 leukemia cell growth inhibition, dose-response viability assay (CellTiterGlo); type: cell-based, murine; conditions: Mus musculus, read-out: MLL-AF9 EC50
Experimental: as §1, §2

Structure (SMILES) | pEC50 (OCI-AML3 cells) | pEC50 (MLL-AF9 cells; MLL-AF9, 120 h) | pEC50 (OCI-AML3 cells; OCI-AML3 cells, 6 days of culture, CellTiterGlo) | pEC50 (MLL-AF9 cells; 120 h, MLL-AF9 cells, 5 days of culture, CellTiterGlo)
Fc1ccc2oc(-c3nc(COc4ccc(CCCCn5ccnn5)cc4)co3)cc2c1 [Compound 112, 4-((4-(4-(1H-1,2,3-triazol-1-yl)butyl)phenoxy)methyl)-2-(5-fluorobenzofuran-2-yl) oxazole] | 6.30 to 7.00 | 7.00 to 7.30 | – | –
Cc1nnn(CCCCc2ccc(OCc3coc(/C=C/c4ccc(C(F)(F)F)cc4F)n3)cc2)n1 [Compound 94, (E)-2-(2-fluoro-4-(trifluoromethyl)styryl)-4-((4-(4-(5-methyl-2H-tetrazol-2-yl)butyl)phenoxy)methyl)oxazole] | 5.00 to 6.00 | 5.00 to 6.00 | – | –
O=[N+]([O-])c1ccc(/C=C/c2nc(COc3ccc(CCCCn4ccnn4)cc3)co2)cc1 [Compound 40, (E)-4-((4-(4-(1H-1,2,3-triazol-1-yl)butyl)phenoxy)methyl)-2-(4-nitrostyryl)oxazole] | 7.00 to 7.30 | 6.30 to 7.00 | – | –
O=[N+]([O-])c1cccc(/C=C/c2nc(COc3ccc(CCCCn4ccnn4)cc3)co2)c1 [Compound 43, (E)-4-((4-(4-(1H-1,2,3-triazol-1-yl)butyl)phenoxy)methyl)-2-(3-nitrostyryl)oxazole] | 5.00 to 6.00 | 5.00 to 6.00 | – | –
FC(F)(F)c1ccc(/C=C/c2nc(COc3ccc(CCCn4ccnn4)cc3)co2)cc1 [Compound 50, (E)-4-((4-(3-(1H-1,2,3-triazol-1-yl)propyl)phenoxy)methyl)-2-(4-(trifluoromethyl)styryl)oxazole] | 5.00 to 6.00 | 6.30 to 7.00 | – | –
O=C(CCO)NCCCCc1ccc(OCc2coc(/C=C/c3ccc(C(F)(F)F)cc3)n2)cc1 [Compound 86, (E)-3-hydroxy-N-(4-(4-((2-(4-(trifluoromethyl)styryl)oxazol-4-yl)methoxy)phenyl)butyl) propanamide] | 5.00 to 6.00 | 6.30 to 7.00 | – | –
Fc1ccccc1/C=C/c1nc(COc2ccc(CCCCn3ccnn3)cc2)co1 [Compound 41, (E)-4-((4-(4-(1H-1,2,3-triazol-1-yl)butyl)phenoxy)methyl)-2-(2-fluorostyryl)oxazole] | 6.30 to 7.00 | 6.30 to 7.00 | – | –
Fc1cc(C(F)(F)F)ccc1/C=C/c1nc(COc2ccc(CCCCc3cccnn3)cc2)co1 [Compound 138, (E)-2-(2-fluoro-4-(trifluoromethyl)styryl)-4-((4-(4-(pyridazin-3-yl)butyl)phenoxy)methyl)oxazole] | > 7.30 | 7.00 to 7.30 | – | –
Fc1cc(C(F)(F)F)ccc1/C=C/c1nc(COc2ccc(CCCCc3cccnc3)cc2)co1 [Compound 102, (E)-2-(2-fluoro-4-(trifluoromethyl)styryl)-4-((4-(4-(pyridin-3-yl)butyl)phenoxy)methyl)oxazole] | 6.30 to 7.00 | 6.30 to 7.00 | – | –
FC(F)(F)c1ccc(/C=C/c2nc(COc3ccc(CCCn4ccnn4)cc3)co2)c(-n2nccn2)c1 [Compound 106, (E)-4-((4-(3-(1H-1,2,3-triazol-1-yl)propyl)phenoxy)methyl)-2-(2-(2H-1,2,3-triazol-2-yl)-4-(trifluoromethyl)styryl)oxazole] | 5.00 to 6.00 | 5.00 to 6.00 | – | –
O=[N+]([O-])c1ccc(/C=C/c2nc(COc3ccc(C(O)CCCn4ccnn4)cc3)co2)c(F)c1 (centres unmarked) [Compound 25, (E)-1-(4-((2-(2-fluoro-4-nitrostyryl)oxazol-4-yl)methoxy)phenyl)-4-(1H-1,2,3-triazol-1-yl)butan-1-ol] | 5.00 to 6.00 | 6.00 to 6.30 | – | –
Fc1cc(C(F)(F)F)ccc1/C=C/c1nc(COc2ccc(CCCn3ccnn3)cc2)co1 [Compound 105, (E)-4-((4-(3-(1H-1,2,3-triazol-1-yl)propyl)phenoxy)methyl)-2-(2-fluoro-4-(trifluoromethyl)styryl)oxazole] | 6.30 to 7.00 | 6.00 to 6.30 | – | –
FC(F)(F)c1ccc(/C=C/c2nc(COc3ccc(CCCCn4cncn4)cc3)co2)c(Oc2ccc(CCCCn3cncn3)cc2)c1 [Compound 89, (E)-2-(2-(4-(4-(1H-1,2,4-triazol-1-yl)butyl)phenoxy)-4-(trifluoromethyl)styryl)-4-((4-(4-(1H-1,2,4-triazol-1-yl)butyl)phenoxy)methyl)oxazole] | 5.00 to 6.00 | 5.00 to 6.00 | – | –
Fc1ccc2cc(-c3nc(COc4ccc(CCCCn5ccnn5)cc4)co3)[nH]c2c1 [Compound 127, 4-((4-(4-(H-1,2,3-triazol-1-yl)butyl)phenoxy)methyl)-2-(6-fluoro-1H-indol-2-yl)oxazole] | > 7.30 | > 7.30 | – | –
FC(F)(F)Oc1ccc(/C=C/c2nc(COc3ccc(CCCCn4ccnn4)cc3)co2)cc1 [Compound 2] | 6.30 to 7.00 | 6.30 to 7.00 | – | –
C#CCNC(=O)CCCCc1cn(CCCCc2ccc(OCc3coc(/C=C/c4ccc(C(F)(F)F)cc4)n3)cc2)nn1 [Compound 12, (E)-N-(prop-2-yn-1-yl)-5-(1-(4-(4-((2-(4-(trifluoromethyl)styryl)oxazol-4-yl)methoxy)phenyl)butyl)-1H-1,2,3-triazol-4-yl)pentanamide] | 6.00 to 6.30 | 6.30 to 7.00 | – | –

Structure (SMILES) | pEC50 (OCI-AML3 cells) | pEC50 (MLL-AF9 cells; MLL-AF9, 120 h) | pEC50 (OCI-AML3 cells; OCI-AML3 cells, 6 days of culture, CellTiterGlo) | pEC50 (MLL-AF9 cells; 120 h, MLL-AF9 cells, 5 days of culture, CellTiterGlo)
FC(F)(F)c1ccc(/C=C/c2nc(COc3ccc(CCCCn4ccnn4)cc3)co2)cc1 [Compound 1, (E)-4-((4-(4-(1H-1,2,3-triazol-1-yl)butyl)phenoxy)methyl-2-(4-trifluoromethyl)styryl)oxazole, reference compound] | – | – | 6.30 to 7.00 | 7.00 to 7.30
O=S(=O)(NCCc1nccn1CCCCc1ccc(OCc2coc(/C=C/c3ccc(C(F)(F)F)cc3)n2)cc1)C(F)(F)F [Compound 55, (E)-1,1,1-trifluoro-N-(2-(1-(4-(4-((2-(4-(trifluoromethyl)styryl)oxazol-4-yl)methoxy)phenyl)butyl)-1H-imidazol-2-yl)ethyl)methanesulfonamide] | 6.00 to 6.30 | 6.30 to 7.00 | – | –
O=[N+]([O-])c1ccccc1/C=C/c1nc(COc2ccc(CCCCn3ccnn3)cc2)co1 [Compound 42, (E)-4-((4-(4-(1H-1,2,3-triazol-1-yl)butyl)phenoxy)methyl)-2-(2-nitrostyryl)oxazole] | 6.00 to 6.30 | 6.30 to 7.00 | – | –
Fc1cc(C(F)(F)F)ccc1/C=C/c1nc(COc2ccc(CCCCc3ncccn3)cc2)co1 [Compound 139, (E)-2-(2-fluoro-4-(trifluoromethyl)styryl)-4-((4-(4-(pyrimidin-2-yl)butyl)phenoxy)methyl)oxazole] | < 5.00 | 5.00 to 6.00 | – | –
Fc1cc(C(F)(F)F)ccc1/C=C/c1nc(COc2ccc(CCCCn3cccn3)cc2)co1 [Compound 91, (E)-4-((4-(4-(1H-pyrazol-1-yl)butyl)phenoxy)methyl)-2-(2-fluoro-4-(trifluoromethyl)styryl) oxazole] | 5.00 to 6.00 | 6.00 to 6.30 | – | –
COc1ccc(/C=C/c2nc(COc3ccc(CCCCn4ccnn4)cc3)co2)c(F)c1 [Compound 61, (E)-4-((4-(4-(1H-1,2,3-triazol-1-yl)butyl)phenoxy)methyl)-2-(2-fluoro-4-methoxystyryl)oxazole] | 6.30 to 7.00 | 6.30 to 7.00 | – | –
FC(F)(F)c1ccc(/C=C/c2nc(CNc3ccc(CCCCn4ccnn4)cc3)co2)cc1 [Compound 26, (E)-4-(4-(1H-1,2,3-triazol-1-yl)butyl)-N-((2-(4-(trifluoromethyl)styryl)oxazol-4-yl)methyl)aniline] | 5.00 to 6.00 | 6.30 to 7.00 | – | –
Fc1ccc2[nH]c(-c3nc(COc4ccc(CCCCn5ccnn5)cc4)co3)cc2c1 [Compound 73] | 6.30 to 7.00 | > 7.30 | – | –
Fc1ncccc1/C=C/c1nc(COc2ccc(CCCCn3ccnn3)cc2)co1 [Compound 83, (E)-4-((4-(4-(1H-1,2,3-triazol-1-yl)butyl)phenoxy)methyl)-2-(2-(2-fluoropyridin-3-yl)vinyl)oxazole] | 6.00 to 6.30 | 6.30 to 7.00 | – | –
O=C(Nc1ccc(CCCCO)cc1)c1coc(/C=C/c2ccc(C(F)(F)F)cc2)n1 [Compound 29, (E)-N-(4-(4-hydroxybutyl)phenyl)-2-(4-(trifluoromethyl)styryl)oxazole-4-carboxamide] | 5.00 to 6.00 | 6.30 to 7.00 | – | –
CC(C)(C)OC(=O)NCCCCc1ccc(OCc2coc(/C=C/c3ccc(C(F)(F)F)cc3)n2)cc1 [Compound 79, (E)-tert-butyl (4-(4-((2-(4-(trifluoromethyl)styryl)oxazol-4-yl)methoxy)phenyl)butyl) carbamate] | 5.00 to 6.00 | 5.00 to 6.00 | – | –
O=[N+]([O-])c1cc(F)cc2cc(-c3nc(COc4ccc(CCCCn5ccnn5)cc4)co3)[nH]c12 [Compound 126, 4-((4-(4-(1H-1,2,3-triazol-1-yl)butyl)phenoxy)methyl)-2-(5-fluoro-7-nitro-1H-indol-2-yl)oxazole] | 5.00 to 6.00 | < 5.00 | – | –
CC(C)NC(=O)OCCc1cn(CCCCc2ccc(OCc3coc(/C=C/c4ccc(C(F)(F)F)cc4)n3)cc2)nn1 [Compound 70, (E)-2-(1-(4-(4-((2-(4-(trifluoromethyl)styryl)oxazol-4-yl)methoxy)phenyl)butyl)-1H-1,2,3-triazol-4-yl)ethyl isopropylcarbamate] | 6.00 to 6.30 | 6.30 to 7.00 | – | –
Fc1ccc(/C=C/c2nc(COc3ccc(CCCCn4ccnn4)cc3)co2)cc1F [Compound 121, (E)-4-((4-(4-(1H-1,2,3-triazol-1-yl)butyl)phenoxy)methyl)-2-(3,4-difluorostyryl)oxazole] | 7.00 to 7.30 | 7.00 to 7.30 | – | –
FC(F)(F)c1ccc(/C=C/c2ccc(COc3ccc(CCCCn4ccnn4)cc3)cc2)cc1 [Compound 57, (E)-1-(4-(4-((4-(4-(trifluoromethyl)styryl)benzyl)oxy)phenyl)butyl)-1H-1,2,3-triazole] | 5.00 to 6.00 | 6.00 to 6.30 | – | –
